Results published in patent publication US8846719B2, “Isoxazolo-pyridine derivatives” (Roche Palo Alto LLC, priority 2007, dated 2014).

Molecular target: human GABA A receptor α5β3γ2 (Homo sapiens (Human), UniProt P18507+P31644)
Test: [3H]flumazenil competition binding assay, human GABA A α5β3γ2 receptors expressed in HEK293 cells
Details: human receptor; displacement of [3H]flumazenil (0.5 nM); means of two determinations; read-out: hKi GABAAa5
Method in brief: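 Ki values, each the mean of two runs, derive from displacement of [3H]flumazenil from human α5β3γ2 GABA A receptors transiently expressed in HEK293 membranes. Binding ran 1 h at 4° C in Krebs-tris, pH 7.5, before filter harvest and scintillation counting.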

| Structure (SMILES) | Ki [nM] |
| --- | --- |
| Cc1onc(-c2ccccc2)c1COc1ccc(C(=O)N[C@@H](Cc2ccccc2)C(=O)O)cn1 [Example 231, (S)-2-{[6-(5-Methyl-3-phenyl-isoxazol-4-ylmethoxy)-pyridine-3-carbonyl]-amino}-3-phenyl-propionic acid] | 28 |
| Cc1onc(-c2ccccc2)c1COc1ccc(C(=O)NC2(C)COC2)cn1 [Example 232, N-(3-Methyl-oxetan-3-yl)-6-(5-methyl-3-phenyl-isoxazol-4-ylmethoxy)-nicotinamide] | 1.4 |
| CCCCS(=O)(=O)NC(=O)c1ccc(OCc2c(-c3ccccc3)noc2C)nc1 [Example 233, Butane-1-sulfonic acid [6-(5-methyl-3-phenyl-isoxazol-4-ylmethoxy)-pyridine-3-carbonyl]-amide] | 32.2 |
| Cc1onc(-c2ccccc2)c1COc1ccc(C(=O)NC(C)C(F)(F)F)cn1 (stereo not shown) [Example 234, 6-(5-Methyl-3-phenyl-isoxazol-4-ylmethoxy)-N-(2,2,2-trifluoro-1-methyl-ethyl)-nicotinamide] | 0.6 |
| Cc1onc(-c2ccccc2)c1COc1ccc(C(=O)N[C@@H](C)C(F)(F)F)cn1 [Example 235, 6-(5-Methyl-3-phenyl-isoxazol-4-ylmethoxy)-N—((S)-2,2,2-trifluoro-1-methyl-ethyl)-nicotinamide] | 1.9 |
| Cc1onc(-c2ccccc2)c1COc1ccc(C(=O)N(C)S(=O)(=O)C2CC2)cn1 [Example 236, Cyclopropanesulfonic acid methyl-[6-(5-methyl-3-phenyl-isoxazol-4-ylmethoxy)-pyridine-3-carbonyl]-amide] | 36.7 |
| Cc1onc(-c2ccccc2)c1COc1ccc(C(=O)Nc2cnn(C)c2)cn1 [Example 237, 6-(5-Methyl-3-phenyl-isoxazol-4-ylmethoxy)-N-(1-methyl-1H-pyrazol-4-yl)-nicotinamide] | 1.1 |
| Cc1onc(-c2ccccc2)c1COc1ccc(C(=O)n2ccc(=O)[nH]2)cn1 [Example 238, 1-[6-(5-Methyl-3-phenyl-isoxazol-4-ylmethoxy)-pyridine-3-carbonyl]-1,2-dihydro-pyrazol-3-one] | 34.9 |
| Cc1onc(-c2ccccc2)c1COc1ccc(C(=O)NC2(C)CC2)cn1 [Example 239, N-(1-Methyl-cyclopropyl)-6-(5-methyl-3-phenyl-isoxazol-4-ylmethoxy)-nicotinamide] | 3.6 |
| Cc1onc(-c2ccccc2)c1COc1ccc(C(=O)N2CCC2)cn1 [Example 240, Azetidin-1-yl-[6-(5-methyl-3-phenyl-isoxazol-4-ylmethoxy)-pyridin-3-yl]-methanone] | 13.9 |
| COC1CN(C(=O)c2ccc(OCc3c(-c4ccccc4)noc3C)nc2)C1 [Example 241, (3-Methoxy-azetidin-1-yl)-[6-(5-methyl-3-phenyl-isoxazol-4-ylmethoxy)-pyridin-3-yl]-methanone] | 16 |
| Cc1onc(-c2ccccc2)c1COc1ccc(C(=O)N2CCSC2)cn1 [Example 242, [6-(5-Methyl-3-phenyl-isoxazol-4-ylmethoxy)-pyridin-3-yl]-thiazolidin-3-yl-methanone] | 37.3 |
| Cc1onc(-c2ccccc2)c1COc1ccc(C(=O)NC2(C#N)CC2)cn1 [Example 243, N-(1-Cyano-cyclopropyl)-6-(5-methyl-3-phenyl-isoxazol-4-ylmethoxy)-nicotinamide] | 2.9 |
| Cc1onc(-c2ccccc2)c1COc1ccc(C(=O)Nc2ccn(C)n2)cn1 [Example 244, 6-(5-Methyl-3-phenyl-isoxazol-4-ylmethoxy)-N-(1-methyl-1H-pyrazol-3-yl)-nicotinamide] | 5.1 |
| Cc1noc(-c2ccc(OCc3c(-c4ccccc4)noc3C)nc2)n1 [Example 245, 5-(3-Methyl-[1,2,4]oxadiazol-5-yl)-2-(5-methyl-3-phenyl-isoxazol-4-ylmethoxy)-pyridine] | 3.3 |
| Cc1nnc(-c2ccc(OCc3c(-c4ccccc4)noc3C)nc2)[nH]1 [Example 246, 2-(5-Methyl-3-phenyl-isoxazol-4-ylmethoxy)-5-(5-methyl-4H-[1,2,4]triazol-3-yl)-pyridine] | 1.1 |
| CSc1ccc(OCc2c(-c3ccccc3)noc2C)nc1 [Example 247, 2-(5-Methyl-3-phenyl-isoxazol-4-ylmethoxy)-5-methylsulfanyl-pyridine] | 17.7 |
| Cc1onc(-c2ccccc2)c1COc1ccc([S+](C)[O-])cn1 (stereo not shown) [Example 248, 5-Methanesulfinyl-2-(5-methyl-3-phenyl-isoxazol-4-ylmethoxy)-pyridine] | 28.1 |
| Cc1cccc(-c2noc(C)c2COc2ccc(C(=O)NC3CCOCC3)cn2)c1 [Example 249, 6-(5-Methyl-3-m-tolyl-isoxazol-4-ylmethoxy)-N-(tetrahydro-pyran-4-yl)-nicotinamide] | 3.2 |
| Cc1cccc(-c2noc(C)c2COc2ccc(C(=O)NC(C)C)cn2)c1 [Example 250, N-Isopropyl-6-(5-methyl-3-m-tolyl-isoxazol-4-ylmethoxy)-nicotinamide] | 3.1 |

| Structure (SMILES) | Ki [nM] |
| --- | --- |
| Cc1ccc(-c2noc(C)c2COc2ccc(C(=O)NC3CCOCC3)cn2)cc1 [Example 251, 6-(5-Methyl-3-p-tolyl-isoxazol-4-ylmethoxy)-N-(tetrahydro-pyran-4-yl)-nicotinamide] | 0.9 |
| Cc1ccc(-c2noc(C)c2COc2ccc(C(=O)NC(C)C)cn2)cc1 [Example 252, N-Isopropyl-6-(5-methyl-3-p-tolyl-isoxazol-4-ylmethoxy)-nicotinamide] | 1 |
| Cc1ccc(-c2noc(C)c2COc2ccc(C(=O)NC(C)C)cn2)c(F)c1 [Example 253, 6-[3-(2-Fluoro-4-methyl-phenyl)-5-methyl-isoxazol-4-ylmethoxy]-N-isopropyl-nicotinamide] | 0.8 |
| Cc1onc(-c2ccc(Cl)cc2)c1COc1ccc(C(=O)NC(C)(C)CO)cn1 [Example 254, 6-[3-(4-Chloro-phenyl)-5-methyl-isoxazol-4-ylmethoxy]-N-(2-hydroxy-1,1-dimethyl-ethyl)-nicotinamide] | 4.1 |
| Cc1onc(-c2ccc(Cl)cc2)c1COc1ccc(C(=O)Nc2cnn(C)c2)cn1 [Example 255, 6-[3-(4-Chloro-phenyl)-5-methyl-isoxazol-4-ylmethoxy]-N-(1-methyl-1H-pyrazol-4-yl)-nicotinamide] | 0.8 |
| Cc1onc(-c2ccc(Cl)cc2)c1COc1ccc(C(=O)N[C@H](C)CO)cn1 [Example 256, 6-[3-(4-Chloro-phenyl)-5-methyl-isoxazol-4-ylmethoxy]-N—((R)-2-hydroxy-1-methyl-ethyl)-nicotinamide] | 0.8 |
| Cc1onc(-c2ccc(Cl)cc2)c1COc1ccc(C(=O)N[C@@H](C)CO)cn1 [Example 257, 6-[3-(4-Chloro-phenyl)-5-methyl-isoxazol-4-ylmethoxy]-N—((S)-2-hydroxy-1-methyl-ethyl)-nicotinamide] | 0.5 |
| Cc1onc(-c2ccc(Cl)cc2)c1COc1ccc(C(=O)N[C@@H](C)C(F)(F)F)cn1 [Example 258, 6-[3-(4-Chloro-phenyl)-5-methyl-isoxazol-4-ylmethoxy]-N—((S)-2,2,2-trifluoro-1-methyl-ethyl)-nicotinamide] | 1.3 |
| Cc1onc(-c2cccc(F)c2F)c1COc1ccc(C(=O)NC(C)C)cn1 [Example 261, 6-[3-(2,3-Difluoro-phenyl)-5-methyl-isoxazol-4-ylmethoxy]-N-isopropyl-nicotinamide] | 26.5 |
| Cc1onc(-c2cccc(F)c2F)c1COc1ccc(C(=O)NC2CCOCC2)cn1 [Example 262, 6-[3-(2,3-Difluoro-phenyl)-5-methyl-isoxazol-4-ylmethoxy]-N-(tetrahydro-pyran-4-yl)-nicotinamide] | 5.2 |
| Cc1onc(-c2ccc(F)cc2F)c1COc1ccc(C(=O)NC(C)C)cn1 [Example 263, 6-[3-(2,4-Difluoro-phenyl)-5-methyl-isoxazol-4-ylmethoxy]-N-isopropyl-nicotinamide] | 2.4 |
| Cc1onc(-c2ccc(F)cc2F)c1COc1ccc(C(=O)NC2CCOCC2)cn1 [Example 264, 6-[3-(2,4-Difluoro-phenyl)-5-methyl-isoxazol-4-ylmethoxy]-N-(tetrahydro-pyran-4-yl)-nicotinamide] | 2.3 |
| Cc1onc(-c2cc(F)ccc2F)c1COc1ccc(C(=O)NC(C)C)cn1 [Example 265, 6-[3-(2,5-Difluoro-phenyl)-5-methyl-isoxazol-4-ylmethoxy]-N-isopropyl-nicotinamide] | 27.3 |
| Cc1onc(-c2cc(F)ccc2F)c1COc1ccc(C(=O)NC2CCOCC2)cn1 [Example 266, 6-[3-(2,5-Difluoro-phenyl)-5-methyl-isoxazol-4-ylmethoxy]-N-(tetrahydro-pyran-4-yl)-nicotinamide] | 4.3 |
| Cc1onc(-c2ccc(F)c(F)c2)c1COc1ccc(C(=O)NC(C)(C)CO)cn1 [Example 267, 6-[3-(3,4-Difluoro-phenyl)-5-methyl-isoxazol-4-ylmethoxy]-N-(2-hydroxy-1,1-dimethyl-ethyl)-nicotinamide] | 9.3 |
| Cc1onc(-c2ccc(F)c(F)c2)c1COc1ccc(C(=O)NCC(C)(C)CO)cn1 [Example 268, 6-[3-(3,4-Difluoro-phenyl)-5-methyl-isoxazol-4-ylmethoxy]-N-(3-hydroxy-2,2-dimethyl-propyl)-nicotinamide] | 3.3 |
| Cc1onc(-c2ccc(F)c(F)c2)c1COc1ccc(C(=O)NCC(C)(C)O)cn1 [Example 269, 6-[3-(3,4-Difluoro-phenyl)-5-methyl-isoxazol-4-ylmethoxy]-N-(2-hydroxy-2-methyl-propyl)-nicotinamide] | 6.7 |
| Cc1onc(-c2ccc(Cl)cc2F)c1COc1ccc(C(=O)NC(C)C)cn1 [Example 270, 6-[3-(4-Chloro-2-fluoro-phenyl)-5-methyl-isoxazol-4-ylmethoxy]-N-isopropyl-nicotinamide] | 0.4 |
| COC(=O)c1ccc(OCc2c(-c3ccccn3)noc2C)nc1 [Example 271, 6-(5-Methyl-3-pyridin-2-yl-isoxazol-4-ylmethoxy)-nicotinic acid methyl ester] | 3.8 |
| Cc1onc(-c2ccccn2)c1COc1ccc(C(=O)NC2CCOCC2)cn1 [Example 272, 6-(5-Methyl-3-pyridin-2-yl-isoxazol-4-ylmethoxy)-N-(tetrahydro-pyran-4-yl)-nicotinamide] | 1.1 |
